In patent publication US7141541B1, “Use of peptides” (University Court of the University of Dundee, priority 1999, dated 2006):
Blank lines part the entries; values can stand above or below the molecule they belong to. Where a SMILES comes first, the peptide text is derived from it. Where no end group is shown, it is not given here. The star is where a group is joined. Biotin = O=C1N[C@H]2[C@H](CS[C@H]2CCCCC(=O)*)N1; Cbz = O=C(OCc1ccccc1)*; CH2F = FC*

Key:
MRC5 cells [1] = test: peptide-induced cell death (apoptosis) in MRC5 cells; format: cell-based; conditions: for biological effect (apoptosis): MRC5 cells / cultured mammalian cells
Description: FIG. 8 is a table illustrating the induction of apoptosis by eIF4G peptides in MRC5 cells;
FIG. 9 is a summary of the results of inhibition of eIF4G(413-424)-induced apoptosis;

serum deprived cells = test: protection from peptide-induced cell death by serum / MAP kinase activation (FIG. 15); format: cell-based
Method: FIG. 15 illustrates that the acute activation of MAP kinase protects cells from 4E-binding peptide induced cell death; and
In the presence of 10% ECS, cells were resistant to treatment with 20 μm of the peptides. Cells only died if they were serum deprived for 72 hours (more than 85%) within 15 minutes after the peptide had been applied (see FIG. 15). However, if serum deprived cells (72 h) were pre-treated with 10% FCS or with 20 nM PMA (phorbol ester) for 15 minutes before the peptides were added, the cells survived the subsequent peptide treatment (60–70%).
Furthermore, if the serum deprived cells were instead pre-treated with the MAPK inhibitor PD098059 for 1 hour before 10% FCS was added, approximately 80–90% of the cells died.

MRC5 cells [2] = test: MTT assay with general translation inhibitors (FIG. 16); format: cell-based; conditions: for protection against the effect of the Hu4G peptide: pre-incubation 30 min prior to 10 μM Hu4G peptide; for cell killing: serum deprived cells
Method: (§1) FIG. 16 illustrates that eIF4E binding peptide cell death is not through eIF4E's known role in mRNA translation. a) 72 h serum-starved MRC5 cells were treated with 100 μg/ml and 10 μg/ml cylcoheximide, 1 μg/ml and 0.1 μg/ml pactamycine or 10 μM Hu4G peptide for 2 h prior to a MTT assay. Cells were pulsed labelled with [^35S]methionine for 30 min after addition of the inhibitors/peptide. The incorporation of [^35S]methionine into protein was determined following hot trichloroacetic acid precipitation. b) 72 h serum-starved MRC5 cells were treated with 100 μg/ml cycloheximide (Chx), 1 μg/ml pactamycine (Pact) or c) MRC5 cells which had been starved of serum for 72 h were pre-incubated with 100 μg/ml cycloheximide or 1 μg/ml pactamycine for 30 min prior to addition of 10 μM Hu4G peptide. Cells were then further incubated for 1.5 h prior to a MTT assay. Results from three independent experiments (+/− SEM).

MRC5 cells [3] = test: [35S]methionine incorporation into protein; format: cell-based; conditions: serum deprived cells, 30 minutes
Method: as §1
Serum deprived cells were treated with the general translation inhibitors Cyclohexamide or Pactamycin at indicated concentrations or the H4G peptide in the presence of 35S-Met for 30 minutes (see FIGS. 16a,b). Cells were lysed and the amount of translation was estimated by counting incorporated 35S-Met in precipitated protein fractions.

MRC5 cells [4] = test: cell survival by MTT assay; format: cell-based; conditions: for cell death / cell viability: various concentrations, 72 h serum-starved MRC5 cells, FIGS. 13b,c,d
Method: FIGS. 13a–d are graphs showing cell survival (% of control, untreated cells) as measured by MTT assay. a) Lane 1: 10 μM BP2 peptide added to serum-fed cells or Lane 2, 3, 4: 10 μM BP2 peptide added to 24 h, 48 h or 72 h serum-starved cells respectively. Lane 5: 10 μM BP2 YLL-AAA added to 72 h serum starved cells. Lane 6: 72 h serum starved cells incubated in 10% serum for 1 h prior to addition to 10 μM BP2 peptide. Lane 7: 72 h serum starved cells incubated with 100 μg/ml cycloheximide followed by a 1 h incubation with 10% serum prior to the addition of 10 μM BP2 peptide. In all cases the cells were then further incubated for 1 h in 0.1 mg/ml MTT. Cells were lysed in DMSO and absorbance was measured at […]. b–d) Varying concentrations of peptides were added to 72 h serum starved MRC5 cells. After 30 min incubation the cells were then further incubated for 1 h in 0.1 mg/ml MTT. Cells were lysed in DMSO and absorbance was measured at 570 nm.

recombinant human eIF4E [5] = molecular target: recombinant human eIF4E (Homo sapiens, UniProt P06730); test: in vitro binding (pull-down) assay with eIF4E; conditions: for interaction with human eIF4E: FIG. 12b(i), 1 μg recombinant eIF4E, 0.2 mM biotinylated peptide, 1 h at 4° C.
Method: (§2) Sequences of biotinylated, penetratin-linked peptides. U=Norvaline, a substitution for cysteine. Conserved residues that are important in binding to eIF4E are underlined. b). In vitro binding assay. i) 1 μg recombinant eIF4E was incubated with 0.2 mM biotinylated peptides in a total volume of 50 μl wash buffer (1×PBS/250 mM Kcl) for 1 h at 4° C. ii) 0.2 mM Hu4G or Hu4G YLL-AAA was incubated with 200 μg MRC5 cell lysate for 1 h at 4° C. in a total volume of 50 μl wash buffer. In all cases the biotinylated peptides and associated proteins were pulled down using streptavidin agarose. The proteins were separated by SDS PAGE and subjected to Western blotting using anti-eIF4E antibody. Detection was by ECL;
In order to study directly the role of eIF4E in cell transformation, a series of biotinylated synthetic peptides (Peptides synthesised by Cyclacel) corresponding to the eIF4E interacting domain (binding motif) of human eIF4G, and wheat eIF4G and alanine substituted peptides thereof were synthesised (see FIG. 12a) and tested for their capacity to interact with ^35S-Met labelled in vitro translated human eIF4E (NB. Peptides BP1 and BP1 YLM-AAA were not biotinylated). Peptides were coupled to streptavidin coated agarose beads by a N-terminus linked biotin group and washed in PBS/0.2% Tween 3× before being incubated for 1 hour at +4° C. with in vitro translated human eIF4E. Beads were washed as above and boiled for 5 min. in SDS loading buffer before the peptide bound proteins were separated on a 10% SDS gel. The bands were visualised by autoradiography.

MRC5 cells [6] = test: mitochondrial permeability transition (JC1 dye, confocal microscopy); format: cell-based; conditions: 10 μM peptide, serum-starved MRC5 cells
Method: (§3) MRC5 cells were incubated with 10 μM Hu4G peptide for 10 min. Cells visualised with fluorescein by fluorescence microscopy. […] 80% of cells incubated with the 10 μM Hu4G peptide fluoresced positive. d) Images of DAPI-stained MRC5 cells incubated with either 20 μM Hu4G or Hu4G YLL-AAA peptide for 40 min. Arrows indicate the position of a cell with either a condensed nucleus (top right) or a nucleus with a punctate appearance (bottom left). e) Visualisation of effects on the MPT. Serum-starved MRC5 cells were loaded with 0.1 μM JCl for 30 min prior to addition of 10 μM peptide. Changes in mitochondrial permeability were viewed by laser scanning confocal microscopy (krypton/argon laser) using identical setting. Green channel: excitation 488 nm/emission 522 nm. Red channel: excitation 568 nm/emission 585 nm. Channels were collected separately to avoid cross over. Images were taken 5 min after addition of the peptide;
An early event considered decisive in apoptosis is the opening of the mitochondrial permeability transition (MPT) pore (20–22). To characterise further the eIF4E-binding peptide-induced cell death, the development of the MPT was investigated in living MRC5 cells loaded with the fluorescent dye, JC1 (21).

[7] = test system: HaCaT, Swiss 3T3, RATI and IIeLa cells; test: cell survival in other cell-types; format: cell-based; conditions: results not shown
[8] = molecular target: T1, eIF4E in MRC5 cell lysate (Homo sapiens, UniProt P06730); test: pull-down of eIF4E from MRC5 cell lysate; format: binding; conditions: 0.2 mM peptide, 200 μg MRC5 cell lysate, 1 h at 4° C.
T1 construct: endogenous in cells; host or cells: MRC5
Method: as §2

MRC5 cells [9] = test: TUNEL analysis; format: cell-based; conditions: 10 μM peptide
Method: as §3

[10] = test system: cap-dependent translation initiation; test: in vitro translation assay, cap-dependent; format: biochemical
[11] = test system: cap-independent translation initiation; test: in vitro translation assay, cap-independent; format: biochemical
recombinant human eIF4E [12] = molecular target: T2, recombinant human eIF4E (human, UniProt P06730 1-217, limits assumed); test: in vitro pull-down of recombinant human eIF4E (FIG. 5)
T2 construct: also called in vitro translated human eIF4E; eukaryotic initiation factor 4E

recombinant human eIF4E [13] = molecular target: T2, recombinant human eIF4E; test: streptavidin agarose pull-down with biotinylated peptide
Method: as §2, with “FIG. 12 illustrates that eIF4E-binding peptides leads to rapid, dose-dependent, cell death. a). Sequences” for “Sequences”, “µg” for “μg”, “µl” for “μl”

T2 sequence (P06730 whole entry): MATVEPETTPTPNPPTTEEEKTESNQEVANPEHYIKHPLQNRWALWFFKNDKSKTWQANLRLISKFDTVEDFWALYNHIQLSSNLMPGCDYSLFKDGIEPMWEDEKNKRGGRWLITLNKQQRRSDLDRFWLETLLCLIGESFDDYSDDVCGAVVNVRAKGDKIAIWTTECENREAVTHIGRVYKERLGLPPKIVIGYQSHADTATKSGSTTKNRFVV
Sequence of recombinant human eIF4E (Homo sapiens, UniProt P06730) (P06730 whole entry): as above
T1 sequence (P06730 whole entry): as above

Molecule: COc1cccc(-c2cc(=O)c3ccccc3o2)c1N [PD098059, reference compound]
effect on serum induced resistance to the peptides (MRC5 cells [1]; pre-treatment with the MEK inhibitor): serum induced resistance could be inhibited | cells died (serum deprived cells; serum deprived cells pre-treated for 1 hour before 10% FCS was added): 80–90%

Molecule: CCCCCCCCCCCCCC(=O)O[C@@H]1[C@@H](C)[C@@]2(O)[C@@H](C=C(CO)C[C@]3(O)C(=O)C(C)=C[C@@H]23)[C@@H]2C(C)(C)[C@]12OC(C)=O [PMA]
cells survived the subsequent peptide treatment (serum deprived cells; serum deprived cells (72 h) pre-treated with 20 nM for 15 minutes): 60–70%

Molecule: COC(=O)C[C@H](NC(=O)[C@H](C)NC(=O)[C@@H](NC(=O)OCc1ccccc1)C(C)C)C(=O)CF [ZVAD.fmk, reference compound] (Cbz-Val-Ala-Asp(OMe)-CH2F)
effect of pre-treatment on peptide-induced cell death (MRC5 cells [1]; MRC5 cells, results not shown): did not affect peptide-induced cell death

Molecule: C[C@@H]1C[C@@H]([C@H](O)CC2CC(=O)NC(=O)C2)C(=O)[C@@H](C)C1 [cycloheximide]
protection against the effect of the Hu4G peptide (MRC5 cells [2]): did not result in any protection | cell killing (MRC5 cells [2]): do not kill the cells | incorporation of 35S-Met (translation) (MRC5 cells [3]): block translation | effect on protective effect of serum (MRC5 cells [4]; pre-incubation with 100 μg/ml, then 10% serum 1 h, then 10 μM BP2 peptide): could not be inhibited

Molecule: CC(=O)c1cccc(N[C@H]2[C@H](N)[C@@](NC(=O)N(C)C)([C@H](C)O)[C@@](C)(O)[C@@]2(O)COC(=O)c2c(C)cccc2O)c1 [pactamycin]
protection against the effect of the Hu4G peptide (MRC5 cells [2]): did not result in any protection | cell killing (MRC5 cells [2]): do not kill the cells | incorporation of 35S-Met (translation) (MRC5 cells [3]): block translation

interaction with human eIF4E (recombinant human eIF4E [5]): lower binding affinity
Molecule: Hu4G Y-A: singly alanine-substituted, penetratin-linked human eIF4G peptide (KKRADREFLLGFRQIKIWFQNRRMKWKK)
cell death / cell viability (MRC5 cells [4]): reduced capacity to induce cell death | biological effect (apoptosis) (MRC5 cells [1]; FIG. 8): intermediate biological effect

binding of eIF4E in cell lysates [8]: did not | interaction with human eIF4E (recombinant human eIF4E [5]): did not interact with eIF4E
Molecule: Hu4G YLL-AAA: triple alanine substituted, penetratin-linked human eIF4G peptide, unable to bind eIF4E (KKRADREFAAGFRQIKIWFQNRRMKWKK)
biological effect (apoptosis) (MRC5 cells [1]; FIG. 8): did not cause the observed biological effect (apoptosis) | changes in JC1 fluorescence (MPT pore opening) (MRC5 cells [6]): No changes in florescence were observed | cell survival [7]: no effect on cell survival | TUNEL signal (MRC5 cells [9]): No signal was observed

Molecule: RVRYSRDQLLDL (listed as Triticum aestivum) [wheat eIF4G(62-73)]
binding to recombinant human eIF4E in vitro (recombinant human eIF4E [5]; FIG. 4, FIG. 5): bound to and pulled down more recombinant human eIF4F in vitro than human eIF4G(569-580) did | inhibition of cap-dependent translation initiation in vitro [10]: found to inhibit cap-dependent translation initiation | inhibition of cap-independent translation initiation in vitro [11]: not cap-independent translation initiation

Molecule: W4G: biotinylated, penetratin-linked peptide of the eIF4E binding motif of wheat eIF4G (Biotin-RVRYSRDQLLDLRQIKIWFQNRRMKWKK)
cell death / cell viability (MRC5 cells [4]): rapid, dose-dependent, cell death | effect of limited serum treatment on sensitivity to the peptide (MRC5 cells [1]; FIG. 9): Resistance | cell death (possibly by apoptosis) (MRC5 cells [1]; serum starved cell lines, FIG. 8): caused rapid cell death

binding result (recombinant human eIF4E [12]): binds
B1: wheat eIF4G(62-73) (peptide)
peptide: RVRYSRDQLLDL

binding result (recombinant human eIF4E [12]): binds
B2: human eIF4G(569-580) (peptide)
peptide: KKRYDREFLLGF
notes: also called human eIF4G413-424

B3: Human eIF4G(569-580)Y416AL421AL422A-Penetratin (peptide)
peptide: KKRADREFAAGFRQIKIWFQNRRMKWKK
modifications: not fully specified (N-terminus)
notes: Order of pieces from the printed name; also called Hu4G YLL-AAA; triple alanine human eIF4G peptide
binding result (recombinant human eIF4E [13]): no binding (tested: 0.2 mM peptide (FIG. 12b legend))
